biological target: SHP2 (Homo sapiens (Human), UniProt Q06124); assay: SHP2 Allosteric Inhibition Assay (DiFMUP prompt fluorescence); type: biochemical; settings: 0.25 nM SHP2 activated with 0.5 μM peptide IRS1_pY1172(dPEG8)pY1222; substrate DiFMUP 100 μM; 25° C.
Sequence (Q06124 whole entry): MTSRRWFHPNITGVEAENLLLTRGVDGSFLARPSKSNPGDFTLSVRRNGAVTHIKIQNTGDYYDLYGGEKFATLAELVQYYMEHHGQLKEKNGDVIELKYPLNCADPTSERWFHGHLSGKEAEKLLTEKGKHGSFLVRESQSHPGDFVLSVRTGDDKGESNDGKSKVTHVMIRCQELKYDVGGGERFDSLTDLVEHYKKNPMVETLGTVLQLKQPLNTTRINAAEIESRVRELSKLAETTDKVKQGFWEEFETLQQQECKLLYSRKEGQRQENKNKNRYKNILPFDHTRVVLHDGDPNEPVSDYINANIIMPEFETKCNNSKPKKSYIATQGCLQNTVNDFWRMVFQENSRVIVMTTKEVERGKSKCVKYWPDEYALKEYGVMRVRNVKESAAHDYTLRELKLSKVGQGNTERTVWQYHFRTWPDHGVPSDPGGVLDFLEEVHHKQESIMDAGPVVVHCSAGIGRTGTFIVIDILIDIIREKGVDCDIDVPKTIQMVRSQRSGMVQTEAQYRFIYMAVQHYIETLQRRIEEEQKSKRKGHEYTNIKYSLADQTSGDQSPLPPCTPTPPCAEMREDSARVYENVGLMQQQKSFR

Row | SMILES | IC50
1 | C[C@@H]1OCC2(CCN(c3cnc4c(N5CCCc6c5ccc(C#N)c6[C@@H]5CCCO5)n[nH]c4n3)CC2)[C@@H]1N [Compound 522] | < 1 µM
2 | C[C@@H]1OCC2(CCN(c3cnc4c(N5CCCc6c([C@@H]7CC(=O)N(C)C7)cccc65)n[nH]c4n3)CC2)[C@@H]1N [Compound 523] | < 1 µM
3 | C[C@@H]1OCC2(CCN(c3cnc4c(N5CCCc6c5ccc(C#N)c6[C@H]5CCCO5)n[nH]c4n3)CC2)[C@@H]1N [Compound 524] | < 1 µM
4 | C[C@@H]1OCC2(CCN(c3cnc4c(N5CCCc6c5ccc(C#N)c6[C@H]5CC(=O)N(C)C5)n[nH]c4n3)CC2)[C@@H]1N [Compound 525] | < 1 µM
5 | C[C@@H]1OCC2(CCN(c3cnc4c(N5CCN([C@H]6C[C@@](C)(O)C6)c6cc(C#N)ccc65)n[nH]c4n3)CC2)[C@@H]1N [Compound 526] | < 1 µM
6 | C[C@@H]1OCC2(CCN(c3cnc4c(N5CCN([C@H]6C[C@](C)(O)C6)c6cc(C#N)ccc65)n[nH]c4n3)CC2)[C@@H]1N [Compound 527] | < 1 µM
7 | C[C@@H]1OCC2(CCN(c3cnc4c(N5CCCc6c5ccc(C#N)c6CC#N)n[nH]c4n3)CC2)[C@@H]1N [Compound 528] | < 1 µM
8 | C[C@@H]1OCC2(CCN(c3cnc4c(N5CCN(CCF)c6cc(C#N)ccc65)n[nH]c4n3)CC2)[C@@H]1N [Compound 529] | < 1 µM
9 | C[C@@H]1OCC2(CCN(c3cnc4c(N5CCN(C6CC(F)(F)C6)c6cc(C#N)ccc65)n[nH]c4n3)CC2)[C@@H]1N [Compound 530] | < 1 µM
10 | C[C@@H]1OCC2(CCN(c3cnc4c(N5CCCc6ncsc65)n[nH]c4n3)CC2)[C@@H]1N [Compound 531] | < 1 µM
11 | C[C@@H]1OCC2(CCN(c3cnc4c(N5CCN(C67CC(F)(C6)C7)c6cc(C#N)ccc65)n[nH]c4n3)CC2)[C@@H]1N [Compound 532] | < 1 µM
12 | CO[C@H]1C[C@H](N2CCN(c3n[nH]c4nc(N5CCC6(CC5)CO[C@@H](C)[C@H]6N)cnc34)c3ccc(C#N)cc32)C1 [compound 472] | 1 to 10 µM
